Assay results taken from EP4678638A1, “NEW E3 UBIQUITIN LIGASE LIGAND, PROTEIN DEGRADATION AGENT AND USE THEREOF” (priority 2023, dated 2024).

Tests used:
[1] = biological target: T1, RSK1 (Homo sapiens, UniProt Q15418); assay: Western blot degradation of RSK1 (hPBMC); type: cell-based; details: Table D8
T1 construct: evaluate the effects of the compounds of the present disclosure on the expression of target proteins in cells; endogenous in cells; host or cells: hPBMC
Procedure: (§1) Conventional Western blot assay was performed to evaluate the effects of the compounds of the present disclosure on the expression of target proteins in cells.
(§2) (1) Cell Seeding and Protein Harvesting: The selected cells were processed according to the cell seeding procedure and protein harvesting procedure in Table III-2. Table III-2 Cell Seeding and Protein Harvesting Procedures
(§3) (2) To the collected supernatant, 5X SDS sample loading buffer was added, followed by denaturation at 95°C for 5 minutes. The denatured samples were then separated by SDS-PAGE electrophoresis on a polyacrylamide gel. Proteins were transferred to a nitrocellulose membrane (0.45 µm NC membrane), blocked with blocking buffer at room temperature for 1 hour, and subjected to antibody incubation and development procedures according to the antibody manufacturer's instructions (Cell Signaling Technology).
(§4) Half-Maximal Degradation Concentration value (the drug concentration required for degrading proteins by 50%, abbreviated as DC50) reads method: comparing the grayscale values of Western blot bands from drug-treated samples with those from blank DMSO-treated controls, and identifying the drug concentration range at which the grayscale value is half that of the DMSO-treated control bands.
(§5) DC50 values can be calculated using ImageJ software to measure grayscale values of Western blot bands from drug-treated samples. The concentration-response curve is fitted to estimate the drug concentration corresponding to half the grayscale value.
(§6) Target protein remaining (%) refers to the percentage of target protein remaining in hPBMC cells after treatment with protein degrader compounds.
(§7) Calculation method for target protein remaining (%): Use ImageJ software to measure grayscale values of Western blot bands from drug (protein degrader)-treated samples. The grayscale value of drug-treated bands is divided by that of internal control protein bands, and the resulting quotient is normalized to obtain the relative percentage of remaining target protein after protein degrader treatment.
(§8) Target protein degradation rate (%) = 100% - target protein remaining (%).

[2] = biological target: T2, RSK2 (Homo sapiens, UniProt P51812); assay: Western blot degradation of RSK2 (hPBMC); type: cell-based; details: Table D8
T2 construct: evaluate the effects of the compounds of the present disclosure on the expression of target proteins in cells; endogenous in cells; host or cells: hPBMC
Procedure: as §1, §2, §3, §4, §5, §6, §7, §8

T2 sequence (P51812 whole entry): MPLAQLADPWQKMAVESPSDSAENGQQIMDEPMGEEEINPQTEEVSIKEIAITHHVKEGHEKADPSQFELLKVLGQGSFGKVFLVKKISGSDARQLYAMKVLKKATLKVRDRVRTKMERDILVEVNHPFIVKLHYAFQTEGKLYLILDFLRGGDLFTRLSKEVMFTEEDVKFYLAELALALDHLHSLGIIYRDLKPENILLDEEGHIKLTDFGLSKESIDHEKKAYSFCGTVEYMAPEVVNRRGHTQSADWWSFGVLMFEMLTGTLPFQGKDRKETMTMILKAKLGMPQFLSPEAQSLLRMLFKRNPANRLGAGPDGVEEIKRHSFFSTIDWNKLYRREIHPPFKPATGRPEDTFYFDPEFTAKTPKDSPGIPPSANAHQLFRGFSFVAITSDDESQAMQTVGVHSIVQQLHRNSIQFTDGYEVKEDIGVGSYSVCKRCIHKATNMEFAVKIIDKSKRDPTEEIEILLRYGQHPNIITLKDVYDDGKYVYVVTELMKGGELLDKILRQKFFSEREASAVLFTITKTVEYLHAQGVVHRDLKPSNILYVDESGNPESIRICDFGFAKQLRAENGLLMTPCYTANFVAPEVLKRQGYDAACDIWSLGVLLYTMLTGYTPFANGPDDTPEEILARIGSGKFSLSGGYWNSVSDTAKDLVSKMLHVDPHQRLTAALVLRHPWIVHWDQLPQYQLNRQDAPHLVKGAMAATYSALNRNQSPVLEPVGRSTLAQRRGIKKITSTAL
T1 sequence (Q15418 whole entry): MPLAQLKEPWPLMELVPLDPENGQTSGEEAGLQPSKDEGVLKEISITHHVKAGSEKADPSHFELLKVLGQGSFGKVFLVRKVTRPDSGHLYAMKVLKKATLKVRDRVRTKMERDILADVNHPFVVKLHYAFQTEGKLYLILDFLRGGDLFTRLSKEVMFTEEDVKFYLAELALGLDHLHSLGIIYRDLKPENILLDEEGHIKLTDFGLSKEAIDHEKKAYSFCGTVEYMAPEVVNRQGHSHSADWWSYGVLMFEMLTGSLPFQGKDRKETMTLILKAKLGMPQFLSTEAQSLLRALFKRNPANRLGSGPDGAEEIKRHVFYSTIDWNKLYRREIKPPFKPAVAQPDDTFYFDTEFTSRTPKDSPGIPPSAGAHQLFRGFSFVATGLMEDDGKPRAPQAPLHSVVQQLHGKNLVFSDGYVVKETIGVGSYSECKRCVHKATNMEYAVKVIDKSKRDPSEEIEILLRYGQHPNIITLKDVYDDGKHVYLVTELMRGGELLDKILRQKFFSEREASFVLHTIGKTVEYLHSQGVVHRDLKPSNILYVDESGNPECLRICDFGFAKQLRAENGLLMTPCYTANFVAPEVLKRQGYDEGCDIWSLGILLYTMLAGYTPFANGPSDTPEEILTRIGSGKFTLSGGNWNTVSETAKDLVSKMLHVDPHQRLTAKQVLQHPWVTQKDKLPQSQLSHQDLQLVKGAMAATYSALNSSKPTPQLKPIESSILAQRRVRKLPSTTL

SMILES	Degradation of substrate protein RSK1 (substrate protein remaining %) [1]	Degradation of substrate protein RSK2 (substrate protein remaining %) [2]
C[C@@H]1CNC(=O)c2cc3ccc(C(=O)Nc4cnn(Cc5ccc(N6CCN(Cc7cccc(N8CCC(=O)NC8=O)c7)CC6)cc5)c4)nc3n21 [GT-07928, (R)-N-(1-(4-(4-(3-(2,4-dioxotetrahydropyrimidin-1(2H)-yl)benzyl)piperazin-1-yl)benzyl)-1H-pyrazol-4-yl)-9-methyl-6-oxo-6,7,8,9-tetrahydropyrido[3',2':4,5]py rrolo[1,2-a]pyrazine-2-carboxamide]	A (A is defined as 0% ≤ substrate protein remaining % ≤ 80%)	A (A is defined as 0% ≤ substrate protein remaining % ≤ 80%)
C[C@@H]1CNC(=O)c2cc3ccc(C(=O)Nc4cnn(Cc5ccc(N6CCN(Cc7ccc(N8CCC(=O)NC8=O)cn7)CC6)cc5)c4)nc3n21 [GT-07929, (R)-N-(1-(4-(4-((5-(2,4-dioxotetrahydropyrimidin-1(2H)-yl)pyridin-2-yl)methyl)piperazin-1-yl)benzyl)-1H-pyrazol-4-yl)-9-methyl-6-oxo-6,7,8,9-tetrahydropyrido[3',2':4,5]py rrolo[1,2-a]pyrazine-2-carboxamide]	A (A is defined as 0% ≤ substrate protein remaining % ≤ 80%)	B (B is defined as substrate protein remaining % > 80%)
C[C@@H]1CNC(=O)c2cc3ccc(C(=O)Nc4cnn(Cc5ccc(N6CCN(Cc7ccc(N8CCC(=O)NC8=O)nc7)CC6)cc5)c4)nc3n21 [GT-07930, (R)-N-(1-(4-(4-((6-(2,4-dioxotetrahydropyrimidin-1(2H)-yl)pyridin-3-yl)methyl)piperazin-1-yl)benzyl)-1H-pyrazol-4-yl)-9-methyl-6-oxo-6,7,8,9-tetrahydropyrido[3',2':4,5]py rrolo[1,2-a]pyrazine-2-carboxamide]	A (A is defined as 0% ≤ substrate protein remaining % ≤ 80%)	B (B is defined as substrate protein remaining % > 80%)
C[C@@H]1CNC(=O)c2cc3ccc(C(=O)Nc4cnn(Cc5ccc(N6CCN(Cc7cccc(NC8CCC(=O)NC8=O)c7)CC6)cc5)c4)nc3n21 (stereo partly drawn) [GT-07931, (9R)-N-(1-(4-(4-(3-((2,6-dioxopiperidin-3-yl)amino)benzyl)piperazin-1-yl)benzyl)-1H-pyrazol-4-yl)-9-methyl-6-oxo-6,7,8,9-tetrahydropyrido[3',2':4,5]py rrolo[1,2-a]pyrazine-2-carboxamide]	A (A is defined as 0% ≤ substrate protein remaining % ≤ 80%)	A (A is defined as 0% ≤ substrate protein remaining % ≤ 80%)
C[C@@H]1CNC(=O)c2cc3ccc(C(=O)Nc4cnn(Cc5ccc(N6CCN(Cc7cc(C8CCC(=O)NC8=O)cnc7F)CC6)cc5)c4)nc3n21 (stereo partly drawn) [GT-07932, (9R)-N-(1-(4-(4-((5-(2,6-dioxopiperidin-3-yl)-2-fluoropyridin-3-yl)methyl)piperazin-1-yl)benzyl)-1H-pyrazol-4-yl)-9-methyl-6-oxo-6,7,8,9-tetrahydropyrido[3',2':4,5]py rrolo[1,2-a]pyrazine-2-carboxamide]	A (A is defined as 0% ≤ substrate protein remaining % ≤ 80%)	B (B is defined as substrate protein remaining % > 80%)
C[C@@H]1CNC(=O)c2cc3ccc(C(=O)Nc4cnn(Cc5ccc(N6CCN(Cc7ncc(C8CCC(=O)NC8=O)cc7F)CC6)cc5)c4)nc3n21 (stereo partly drawn) [GT-07933, (9R)-N-(1-(4-(4-((5-(2,6-dioxopiperidin-3-yl)-3-fluoropyridin-2-yl)methyl)piperazin-1-yl)benzyl)-1H-pyrazol-4-yl)-9-methyl-6-oxo-6,7,8,9-tetrahydropyrido[3',2':4,5]py rrolo[1,2-a]pyrazine-2-carboxamide]	A (A is defined as 0% ≤ substrate protein remaining % ≤ 80%)	B (B is defined as substrate protein remaining % > 80%)
C[C@@H]1CNC(=O)c2cc3ccc(C(=O)Nc4cnn(Cc5ccc(N6CCN(Cc7cncc(C8CCC(=O)NC8=O)c7)CC6)cc5)c4)nc3n21 (stereo partly drawn) [GT-07934, (9R)-N-(1-(4-(4-((5-(2,6-dioxopiperidin-3-yl)pyridin-3-yl)methyl)piperazin-1-yl)benzyl)-1H-pyrazol-4-yl)-9-methyl-6-oxo-6,7,8,9-tetrahydropyrido[3',2':4,5]py rrolo[1,2-a]pyrazine-2-carboxamide]	A (A is defined as 0% ≤ substrate protein remaining % ≤ 80%)	B (B is defined as substrate protein remaining % > 80%)
C[C@@H]1CNC(=O)c2cc3ccc(C(=O)Nc4cnn(Cc5ccc(N6CCN(Cc7cc(N8CCC(=O)NC8=O)cnc7F)CC6)cc5)c4)nc3n21 [GT-07935, (R)-N-(1-(4-(4-((5-(2,4-dioxotetrahydropyrimidin-1(2H)-yl)-2-fluoropyridin-3-yl)methyl)piperazin-1-yl)benzyl)-1H-pyrazol-4-yl)-9-methyl-6-oxo-6,7,8,9-tetrahydropyrido[3',2':4,5]py rrolo[1,2-a]pyrazine-2-carboxamide]	A (A is defined as 0% ≤ substrate protein remaining % ≤ 80%)	B (B is defined as substrate protein remaining % > 80%)
C[C@@H]1CNC(=O)c2cc3ccc(C(=O)Nc4cnn(Cc5ccc(N6CCN(Cc7cnc(N8CCC(=O)NC8=O)cn7)CC6)cc5)c4)nc3n21 [GT-07936, (R)-N-(1-(4-(4-((5-(2,4-dioxotetrahydropyrimidin-1(2H)-yl)pyrazin-2-yl)methyl)piperazin-1-yl)benzyl)-1H-pyrazol-4-yl)-9-methyl-6-oxo-6,7,8,9-tetrahydropyrido[3',2':4,5]py rrolo[1,2-a]pyrazine-2-carboxamide]	A (A is defined as 0% ≤ substrate protein remaining % ≤ 80%)	B (B is defined as substrate protein remaining % > 80%)
C[C@@H]1CNC(=O)c2cc3ccc(C(=O)Nc4cnn(Cc5ccc(N6CCC(N(C)Cc7ccc(C8CCC(=O)NC8=O)cc7)CC6)cc5)c4)nc3n21 (stereo partly drawn) [GT-07937, (9R)-N-(1-(4-(4-((4-(2,6-dioxopiperidin-3-yl)benzyl)(methyl)amino)piperidin-1-yl)benzyl)-1H-pyrazol-4-yl)-9-methyl-6-oxo-6,7,8,9-tetrahydropyrido[3',2':4,5]py rrolo[1,2-a]pyrazine-2-carboxamide]	A (A is defined as 0% ≤ substrate protein remaining % ≤ 80%)	B (B is defined as substrate protein remaining % > 80%)
